# In patent US20060062841A1, “Liposomal vectors” (priority 2004, published 2006):
# How the values were obtained:
# TNF-α = assay: Cytokine assay in the blood: TNF-α; format: in vivo, mouse
# Method: FIG. 3A-C. Comparison the levels of TNF-α in blood (a), organs (b) and the blood levels of IL-12 and IFN-γ (c) after injection of the lipoplexes and safeplexes. The charge ratio of DOTA to DNA (+/−) (a) was varied from 0 to 12 and (b) and (c) was fixed at 6 to 1. The levels of cytokines were detected 2 h (a,b) or 6 h (c) after injection of the lipoplexes and safeplexes containing 25 μg pDNA. P<0.001 (three mice in each group).
# FIG. 4A-B. Effect of (A) DEX dose and (B) time course on suppressing TNF-α. Mice were (three in each group) injected with the lipoplexes or safeplexes with (A) a varied ratio of DEX to DOTAP and (B) with a ratio of DEX to DOTAP of 1/10 (w/w). (a, b) The charge ratio of DOTAP to DNA was fixed at 6 to 1. P>0.5, P<0.001
# FIG. 5. Inhibition of TNF-α production by other suppressors. The levels of TNF-α in the blood were analyzed 2 h after the injection of lipoplexes and safeplexes with a charge ratio of DNA to DOTAP of 1/6 (mol/mol). P<0.001 (n=3).
# At indicated time points (2 h for TNF-α, 6 h for IL-12 and IFN-γ) following the injection of a tested sample containing 25 μg of pDNA, the blood and organs (the liver, lung and spleen) were collected. The blood was allowed to clot on ice for at least 4 h and then centrifuged at 3000 g for 20 min at 4° C., and serum was collected for the cytokine assay. For the organ assay, […] of each organ was added with 0.5 ml PBS buffer and homogenized for 20 s at the highest speed. The homogenates were frozen (in liquid nitrogen) and thawed (in 37° C. water bath) three times and then centrifuged at 14,000 g for 5 min. The supernatants were collected for the cytokine assay. The concentrations of cytokines (TNF-α, IL-12 and IFN-γ) were determined with mouse cytokine immunoassay kits (R&D System, Minneapolis, Minn.). Data were analyzed by the paired Student's t test using Excel. Data were considered statistically significant if P<0.01.
# immune cells = conditions: sublethally irradiated mice, intraperitoneal injection; cited from earlier work
Molecule,"effect on TNF-α production in blood (TNF-α; mouse, in vivo)",further results
Dexamethasone-Water Soluble [free DEX],–,"inhibition of TNF-α (TNF-α; 32 μg free DEX intravenously, immediately followed by DNA/DOTAP complexes): less than 45%"
CN1C(=O)[C@]23CC4=CC=C[C@H](O)[C@H]4N2C(=O)[C@@]1(CO)SS3 [gliotoxin],–,"effect on TNF-α production in blood (TNF-α; carried by safeplexes, inhibitor/DOTAP 1/6 mol/mol, 2 h after injection): showed the inhibitory effect; recovery of immune cells (immune cells): significant delay"

# More lines, main results first:
"effect on TNF-α production in blood (TNF-α; mouse, in vivo)",Molecule,further results
showed the inhibitory effect,COc1ccc2c(c1)c(CC(=O)O)c(C)n2C(=O)c1ccc(Cl)cc1 [indomethacin],–
showed the inhibitory effect,C[C@]12C=CC(=O)C=C1CC[C@@H]1[C@@H]2C(=O)C[C@@]2(C)[C@H]1CC[C@]2(O)C(=O)CO [prednisone],–
showed the inhibitory effect,COc1ccc2cc1Oc1ccc(cc1)C[C@H]1c3cc(c(OC)cc3CCN1C)Oc1c(OC)c(OC)cc3c1[C@H](C2)N(C)CC3 [tetrandrine],–
